Where two headings read alike, the source gives them in different places.
Experiments:
[1] = parameters: method as in Miesner et al. (2016); settings: kidney cancer patient, 10 mg everolimus, concomitant clarithromycin 500 mg twice daily for 12 days, acute renal failure; ref Miesner et al. (2016); cited from earlier work
breast cancer patients = test system: breast cancer patients; parameters: method as in Ito et al., 2015; settings: Japanese population in the BOLERO-2 study; ref Ito et al., 2015; cited from earlier work
[2] = Everolimus whole blood concentrations and Bayesian estimation of PK parameters and trough concentrations; assay type: in vivo, human; settings: for trough concentration estimate at grade 2 stomatitis: person
Experimental: Whole blood samples for the everolimus assay were collected at least two weeks after initiation of treatment or after the last everolimus dose change. Blood samples were collected at pre-dose, 1, 4, and 8 h after the everolimus dose. Blood everolimus concentrations were measured using a latex agglutination turbidimetric immunoassay ([Mori et al., 2014]) for the samples collected during November 2015 to September 2016 (n = 10) and using electrochemiluminescence immunoassay ([Blackburn et al., 1991]) for the samples collected during October 2016 to November 2018 (n = 8). Since these two techniques are highly correlated, the measured results were considered to be the same (r = 0.972) ([Sasano et al., 2016]).
PK parameters such as clearance (CL) and volume of distribution were estimated using Bayesian analysis in MW/Pharm++ software (Mediware, Prague, Czech Republic) ([Fuchs et al., 2013]). […] Ka was fixed for all analyses due to the limited data to characterize the absorption. The PK parameters were allometrically scaled to body weight to account for the effect of body size differences according to the following formula: Pi=Ppop×(BWi/BWstandard)^power where Pi was the estimated PK parameter for individual i, Ppop was the typical population value of the PK parameters. BWstandard was the standard body weight of 70 kg. The power coefficient was 0.75 for CL and intercompartment clearance and 1 for volume of distribution of the central compartment and the peripheral compartment.
Everolimus concentrations at steady-state or at the time of occurrence of dose-limiting toxicity was estimated using the Bayesian-estimated PK parameters of the individual patient.

[3] = parameters: method as in de Wit et al. (2016); settings: ref de Wit et al. (2016), cited from earlier work
patients = settings: cited from earlier work
[4] = five patients who did not experience DLTs

Compound: CO[C@H]1C[C@@H]2CC[C@@H](C)[C@@](O)(O2)C(=O)C(=O)N2CCCC[C@H]2C(=O)O[C@H]([C@H](C)C[C@@H]2CC[C@@H](OCCO)[C@H](OC)C2)CC(=O)[C@H](C)/C=C(\C)[C@@H](O)[C@@H](OC)C(=O)[C@H](C)C[C@H](C)/C=C/C=C/C=C/1C [everolimus]
- trough level of everolimus [1]: 110 ng/mL
- median PFS (breast cancer patients): 8.5 months
- steady-state trough concentrations at the starting dose, range ([2]; 5 mg starting dose, six patients, approximated with Bayesian-estimated PK parameters): 11.3 to 29.6 ng/mL
- estimated steady-state trough concentration when the dose was reduced and maintained without DLT, range ([2]; 13 patients who had DLTs): 5.7 to 24.2 ng/mL
- median estimated steady-state trough concentration when the dose was reduced and maintained without DLT ([2]; 13 patients who had DLTs): 8.3 ng/mL
- estimated trough concentration at the time of the DLTs, range ([2]; 13 patients with DLTs): 11.3 to 64.6 ng/mL
- median estimated trough concentration at the time of the DLTs ([2]; 13 patients with DLTs): 19.0 ng/mL
- CL, Mean ([2]; Bayesian estimate, steady state, Japanese breast cancer patients n = 18, scaled to 70 kg): 11.7 L/h/70 kg
- estimated trough concentration after dose reduction ([2]; all patients except in one patient): higher than 6 ng/ml
- steady-state trough concentration after restarting the treatment ([2]; case Figure 3A, 5 mg once daily, no DLTs): 8.4 ng/mL
- trough concentration estimate at grade 2 stomatitis ([2]; case Figure 3A, 10 mg once daily, two weeks after initiation): 16.8 ng/mL
- steady-state trough concentration after everolimus dose reduction ([2]; case Figure 3B, 5 mg every alternate day): 9.2 ng/mL
- trough concentration estimate at grade 2 stomatitis ([2]; case Figure 3B, 5 mg once daily, day 90): 29.6 ng/mL
- trough concentration, median [2, 4]: 19.0 ng/mL
- trough concentration, range [2, 4]: 12.8 to 33.2 ng/mL
- clearance (CL), range ([2]; inter-individual range, n = 18): 5.1–21.3 L/h/70 kg
- volume of distribution of the central compartment, range ([2]; inter-individual range, n = 18): 9.9–103.6 L/70 kg
- dose-adjusted trough concentrations, range ([2]; whole blood, steady state, doses 10, 5, 2.5 mg/day or 5 mg every alternate day): 1.3 to 6.5 ng/mL/mg/day
- absorption rate constant (Ka) ([3]; fixed for all analyses): 0.643 h⁻¹
- clearance (CL), population prior ([3]; two-compartment model, patients with thyroid cancer): 20.3 L/h
- incidence of stomatitis (patients; Japanese breast cancer patients, ref BOLERO-2 study): 88%
- proportion of patients who required a second dose reduction to 2.5 mg daily (patients; clinical study in Spain (6/90), ref Pascual et al., 2017): 7%
- proportion of patients who required a dose reduction to 5 mg daily (patients; clinical study in Spain (43/90), ref Pascual et al., 2017): 48%
- incidence of stomatitis (patients; patients with breast cancer, ref Alexopoulos et al., 2022, Ruíz-Falcó Rojas et al., Tedesco-Silva et al.): 20%–50%
- incidence of stomatitis (patients; renal transplant or tuberous sclerosis complex, ref Alexopoulos et al., 2022, Ruíz-Falcó Rojas et al., Tedesco-Silva et al.): approximately 10%

From publication PMC9520775, “Everolimus pharmacokinetics and exposure-response relationship in Japanese patients with advanced breast cancer” (Frontiers in Pharmacology, 2022)
